Laboratory results as given in patent EP2068152A1, “c-Kit as a novel target for the treatment of pain” (Max-Delbrück-Centrum für Molekulare Medizin (MDC), priority 2007, dated 2009).

Legend:
[1] = tested on: c-Kit; assay: Paw withdrawal test (radiant heat); format: in vivo, mice
Description: Paw withdrawal test. In the radiant paw-withdrawal test the mice were placed in a Plexiglas chamber (15 cm diameter, 22.5 cm in height). The stimulus was a high intensity beam directed at the plantar surface of the hindpaw; movement of the paw away from the beam results in the heat source being terminated, with the withdrawal latency indicated on a digital screen (Ugo Basile, Milan, Italy). Paw withdrawal latencies were determined alternately from both hindpaws (stimuli given every 30- 40 s). Criteria for inclusion of a data point were calm behavior of the mouse just prior to testing, and a clear paw withdrawal from the hot beam associated with paw flicking and grooming. Baseline values were taken once a day at the same time for a period of 3 days. c-Kit ligand (Stem Cell Factor, SCF, R&D Systems) was injected once intraperitoneally (1 mg/kg i.p.) into TRPV1 -l- and control C57B1/6 mice (adult females, 6- 8 weeks, 20-25 g body weight), and response latencies to radiant heating of the hind paw was measured at various times after injection as described.
The inventors therefore used the mast cell degranulating agent 48/80 to deplete resident mast cells of neuroactive substances prior to the administration of SCF.

[2] = tested on: Aβ mechanoreceptors; conditions: animals treated as adults with imatinib
[3] = tested on: C-fiber nociceptors; assay: In vitro skin nerve preparation: noxious heat response of CMH fibers from treated mice; format: in vivo
Description: The conduction velocity cut-off between Aβ and Aδ fibers was determined to be 9 m/s in c-Kit mutants based on measurements of the Aβ and Aδ wave in compound action potential recordings as previously described (Koltzenburg et al., 1997).

## Cc1ccc(NC(=O)c2ccc(CN3CCN(C)CC3)cc2)cc1Nc1nccc(-c2cccnc2)n1 [imatinib, 4-[(4-Methyl-1-piperazinyl)methyl]-N-[4-methyl-3-[[4-(3-pyridinyl)-2-pyrimidinyl]amino]-phenyl]benzamide]
[1]; 5 days after daily imatinib treatment, 0.1 mg/g sub-cutaneously, n=6, vehicle treated mice 129 ±35%
  foot withdrawal latency to noxious heat: 160 ±39 % of starting values
[1]; two subcutaneous injections (0.1 mg/g) 18 hrs and 1 hr before SCF (1 µg/g, i.p.)
  thermal hyperalgesia after SCF in pre-treated mice: did not display any significant thermal hyperalgesia
[2]
  proportion of RAM and SAM receptors: no change in proportion of RAM and SAM receptors
[3]; imatinib 0.1 mg/g sub-cutaneously for 6-7 days
  C-fiber heat sensitivity: reduction in C-fiber heat sensitivity that was almost identical to that found in c-Kit^-/- and c-Kit^+/- mice
[3]; imatinib treated adult mice, heat ramp 32°C to 60°C, Two way ANOVA F=7.67 p<0.01
  number of spikes per 1 second time window during the heat ramp (CMH fibers), curve versus control: significantly different from control
[3]; imatinib treated mice, figure stated together with c-kit mutant mice, control C-fibers 47%
  fibers with responses >60 spikes/stimulus (high responders): ~16%
